Measurements reported in patent US20220354929A1, “PEPTIDES AND USES THEREOF” (LATERAL IP PTY LTD, priority 2019, published 2022).
Where “and” joins values, the source holds several entries; their conditions need not be identical. Equal values may be shown once. Entries after “also recorded” stand apart in the source; their conditions may differ.

Legend:
[1] = tested on: dorsal horn neurones; experiment: whole-cell patch clamp recording in spinal cord slices from Chung models of neuropathic pain: membrane properties of dorsal horn neurones; type: cell-based, rat; details: peptide 5 μM; for Input Resistance, mean in presence of peptide / Membrane Potential, mean in presence of peptide: all cells; for Membrane Potential, mean in presence of peptide: ipsilateral to injury; for Normalised Input Resistance, mean in presence of peptide / Normalised Input Resistance, ΔIR: control = 100; for reversal potential of peptide-induced response (intersection of VI relations): individual neurones; for Normalised Membrane Potential, mean in presence of peptide / Normalised Membrane Potential, ΔVm: rest = 100
Excerpt: (§1) An in vitro spinal cord slice with intact dorsal root afferents combined with single-cell whole-cell patch clamp electrophysiological recording techniques was used to assess the electrophysiological properties of the peptides having the amino acid sequence of SEQ ID NO:2, 3, 4 and 5.
The spinal nerve ligation model (Chung model) was first reported by Kim and Chung (1992; Pain, 50(3):355-63) and involves a single tight ligation of the L5 spinal nerve. […] This model has been used as a “gold standard” model for assessing the efficacy of novel compounds targeting neuropathic pain.
Adult male Sprague-Dawley rats, 8-9 weeks old, weighing 220-250 g at the time of surgery, were purchased from Charles River UK Ltd. The animals were housed in groups of 4 in an air-conditioned room on a 12-hour light/dark cycle. Food and water were available ad libitum. They were allowed to acclimatise to the experimental environment for three days by leaving them on a raised metal mesh for at least 40 min. The baseline paw withdrawal threshold (PWT) was examined using a series of graduated von Frey hairs for 3 consecutive days before surgery and re-assessed on the 6th to 8th day after surgery and on the 12th to 14th day after surgery before drug dosing. Each rat was anaesthetized with 5% isoflurane mixed with oxygen (2L per min) followed by an intramuscular (i.m.) injection of ketamine 90 mg/kg plus xylazine 10 mg/kg. The back was shaved and sterilized with povidone-iodine. The animal was placed in a prone position and a para-medial incision was made on the skin covering the L4-6 level. The L5 spinal nerve was carefully isolated and tightly ligated with 6/0 silk suture. The wound was then closed in layers after a complete hemostasis. A single dose of antibiotics (Amoxipen, 15 mg/rat, i.p.) was routinely given for prevention of infection after surgery. The animals were placed in a temperature-controlled recovery chamber until fully awake before being returned to their home cages.
(§2) Chung model rats, aged 8 to 12 weeks, were housed in an air-conditioned room on a 12 hour light/dark cycle with food and water available ad libitum. The rats were terminally anaesthetized using isofluorane and decapitated. The vertebral column, rib cage and surrounding tissues were rapidly removed and pinned under ice-cold (<4° C.), high sucrose-containing artificial cerebrospinal fluid (aCSF) comprising: 127 mM sucrose, 1.9 mM KCl, 1.2 mM KH2PO4, 0.24 mM CaCl2, 3.9 mM MgCl2, 26 mM NaHCO3, 10 mM D-glucose and 0.5 mM ascorbic acid. A laminectomy was performed and the spinal cord and associated roots gently dissected and teased out of the spinal column and surrounding tissues. Dura and pia mater and ventral roots were subsequently removed with fine forceps and the spinal cord hemisected. Care was taken to ensure dorsal root inputs to the spinal cord were maintained. The hemisected spinal cord-dorsal root preparations were secured to a tissue slicer and spinal cord slices (400 to 450 μm thick) with dorsal roots attached were cut in chilled (<4° C.) high sucrose aCSF using a Leica VT1000s microtome.
(§3) Slices were transferred to a small beaker containing ice cold aCSF with 127 mM NaCl, 1.9 mM KCl, 1.2 mM KH2PO4, 1.3 mM MgCl2, 2.4 mM CaCl2, 26 mM NaHCO3 and 10 mM D-glucose, and rapidly warmed to 35° C. ±1° C. in a temperature-controlled water bath over a 20 minute period, then subsequently removed and maintained at room temperature (22° C. ±2° C.) prior to electrophysiological recording. Electrophysiological recording was performed in aCSF comprising 127 mM NaCl, 1.9 mM KCl, 1.2 mM KH2PO4, 1.3 mM MgCl2, 2.4 mM CaCl2, 26 mM NaHCO3 and 10 mM D-glucose.
Whole-cell recordings were performed at 34-35° C. from Lamina I or II neurones in the dorsal horn of the spinal cord slices using Axopatch 1D and/or Multiclamp 700B amplifies and using the “blind” version of the patch-clamp technique. […]

[2] = tested on: dorsal root afferent-mediated synaptic inputs to dorsal horn neurones; experiment: whole-cell recording in spinal cord slices from Chung models: dorsal root afferent-mediated synaptic inputs (evoked EPSPs/IPSPs); type: cell-based, rat; details: peptide 5 μM; dorsal root stimulation 0.1 Hz
Procedure: as §1, §2, §3
Whole-cell recordings were performed at 34-35° C. from Lamina I or II neurones in the dorsal horn of the spinal cord slices using Axopatch 1D and/or Multiclamp 700B amplifies and using the “blind” version of the patch-clamp technique.
Patch pipettes were pulled from thin-walled borosilicate glass with resistances of between 3 and 8 MS2 when filled with intracellular solution (140 mM potassium gluconate, 10 mM KCl, 1 mM EGTA-Na, 10 mM HEPES, 4 mM Na2ATP, 0.3 mM Na-GTP). The peptides of SEQ ID NOs:2, 3, 4 or 5 (LAT7771, LAT7772, LAT7773 or LAT7774) were diluted in the tissue bath at a concentration of 5 μM.
A concentric bipolar stimulating electrode was placed appropriately either on the dorsal root or dorsal root entry zone to evoke postsynaptic potentials/currents in recorded cells (see FIG. 1). […] EPSPs/EPSCs were confirmed as monosynaptic on the basis of being characterised by a constant latency and rise-time with few failures.
Recordings were monitored on an oscilloscope and stored on digital audio tapes for later off-line analysis. In addition, data were low-pass filtered at 2-5 kHz, (1 kHz for voltage-clamp data), digitized at 2-10 kHz and stored on a PC running pCLAMP 10 data acquisition software (Axon Instruments). Analysis of electrophysiological data was carried out using Clampfit 10 software.

[3] = solubility in distilled water

| Sequence | effect on inward rectification (in words) [1] | effect on neuronal input resistance (in words) [1] | Input Resistance, mean in presence of peptide [1] | Membrane Potential, mean in presence of peptide [1] | Normalised Input Resistance, mean in presence of peptide [1] | Normalised Input Resistance, ΔIR [1] | reversal potential of peptide-induced response (intersection of VI relations) [1] | membrane hyperpolarisation in individual neurones ([1]; responding neurones) [mV] | Normalised Membrane Potential, mean in presence of peptide [1] | Normalised Membrane Potential, ΔVm [1] | effect on dorsal root-evoked EPSPs / excitatory synaptic transmission (in words) [2] | effect on dorsal root-evoked IPSPs / inhibitory synaptic transmission (in words) [2] | solubility in distilled water [3] | effect on membrane potential / postsynaptic membrane properties (in words) [1] |
| --- | --- | --- | --- | --- | --- | --- | --- | --- | --- | --- | --- | --- | --- | --- |
| CRIVYDSNC [LAT7773] | enhancing inward rectification; also recorded: enhanced inward rectification | variable effects on input resistance inducing a decrease in 4 neurones and an increase in 5 neurones; also recorded: small increase in neuronal input resistance | 373.5±103.6 MΩ and 373.5 MΩ | −50.3±3.0 mV and −50.3 mV | 99.9 | 0.1 | no clear reversal potential in 7 neurones; also recorded: around −93 mV; also recorded: around −92 mV | 7.6 | 88.4 | 11.6 | In three neurones electrical stimulation of dorsal roots (0.1 Hz) evoked EPSPs that were suppressed; also recorded: In two other neurones EPSPs, and in one of these IPSPs, were enhanced; also recorded: remaining two neurones showed no change; also recorded: in some neurones depressed whilst in others they were clearly potentiated; also recorded: reducing dorsal root afferent-mediated synaptic inputs; also recorded: little effect on dorsal root afferent-mediated excitatory synaptic transmission; also recorded: increase in dorsal root afferent-mediated synaptic transmission | in one of these IPSPs, were enhanced; also recorded: both EPSPs and IPSPs were enhanced | soluble | – |
| CRIVYDSNCG [LAT7774] | changes in inward rectification | – | 294.0±62.2 MΩ and 294.0 MΩ | −59.8±3.6 mV and −59.8 mV | 121.2 | −21.2 | around −100 mV and ~−65 mV and around −80 mV and ~−85 mV and around −95 mV and around −55 mV and around −85 mV | – | 100.9 | −0.9 | no effect on dorsal root evoked (0.1 Hz) EPSPs in 4 neurones; also recorded: minor reduction in two; also recorded: increased EPSPs in one; also recorded: both facilitating and inhibiting these inputs; also recorded: small decrease in EPSPs; also recorded: lack of effect; also recorded: increase in EPSPs | – | soluble | little effect on a further 2 dorsal horn neurones; also recorded: hyperpolarisation; also recorded: depolarisation |
